Reference: patent US10154992B2, “Compounds and methods for treating HIV infection” (THE REGENTS OF THE UNIVERSITY OF CALIFORNIA, priority 2016, dated 2018)
In brackets after ≈: the same amount, converted by molar mass. Where two headings read alike, the source gives them in different places.

Legend:
[1] = system: HIV-1 provirus in U1 cells; test: U1 activation (latency) assay, p24 ELISA; format: cell-based
Protocol: (§1) U1 activation assay. U1 cells obtained from the AIDS Research and Reference Reagent Program were maintained under standard culture conditions in RPMI 1640 supplemented with 10% fetal bovine serum (heat inactivated), 2 mM L-glutamine, 100U/mL penicillin and 100 μg/mL streptomycin. U1 cells contain an integrated copy of a phorbol ester inducible HIV-1 provirus and addition of phytohemagglutinin (PHA) to the cell culture was used to induce virus production. On the day of the assay, the U1 cells were activated with PHA and 250,000 cells were plated in 96-well plates. Test compounds were diluted in media and applied to the cells at final concentrations from 1 to 10,000 nM. Cultures were incubated for 3 days and supernatants harvested. Cell-free virus production was measured by p24 ELISA on culture supernatant. Compound toxicity was determined by MTT cell-viability assay in parallel assays.

[2] = MTT cell viability in parallel with the U1 assay; format: cell-based; conditions: human, U1 cells, read-out: U1 TC50
Protocol: as §1

[3] = MTT cell viability run in parallel with the Tat-hybrid assay; format: cell-based; conditions: human, Tat-hybrid reporter cell lines (HeLa); for CC50 at 48 h: Table 5, read-out: Tat hybrid TC50; for EC50 at 48 h: Table 6, second 'EC50' entry of the cell, values D/E
Protocol: (§2) Cells were counted and plated into white 384-well or 96-well cell-culture treated assay plates and compounds were added. After 48 hours, the cells were prepared for luminescence assays that were performed on a plate reader (Tecan Evolution or MD Analyst). The cytotoxicity of each compound was determined in parallel via MTT-based cell viability assays.
as §2, with “Tat hybrid reporter assay. […] Previously characterized thienopyridines and diaminoacridine were used as controls. Cells” for “Cells”, “384-well” for “384-well or 96-well”, “lumincescence” for “luminescence”, “assays. […]” for “assays.”

[4] = MTT cell viability in Jurkat replication assay; format: cell-based; conditions: human, Jurkat (E6-1) cells, pH 7.4
Protocol: (§3) Virus spreading assay. Jurkat (E6-1) cells (NIH AIDS Reagent Program) were cultured in RPMI media supplemented with 25 mM HEPES pH 7.4, 10% heat-inactivated fetal calf serum (Hyclone, Waltham Mass.), and 1% penicillin/streptomycin. 2.5×10^5 Jurkat cells were inoculated with 250 pg p24 in 250 μl media in a 96-well flat bottom polystyrene cell culture microplate. Input virus was removed after 18 hours via washing cells phosphate-buffered saline (PBS). Cells were resuspended in 250 μl of media containing compounds at the described concentrations. Cells were incubated at 37° C., 5% CO2 and supernatant samples were removed every 48 hours and replaced with fresh media containing the compounds. Viral replication was quantified using ELISA to quantify p24 viral capsid protein in the culture supernatant. Mouse monoclonal and rabbit polyclonal α-p24 antibodies used in the ELISA were obtained from the NIH AIDS Reagent Program. Toxicity was monitored using the MTT cell viability assay (Mosmann, T. (1983). J Immunol Methods 65, 55-63).

HIV-1 isolate NL4-3 = test: Virus spreading / replication assay in Jurkat cells, p24 ELISA; format: cell-based
Protocol: as §3

[5] = system: Tat-hybrid reporter cell lines (HeLa); test: MTT cell viability run in parallel with the Tat-hybrid assay; format: cell-based; conditions: Table 6; at 50,000 nM
Protocol: as §2
as §2, with “Tat hybrid reporter assay. […] Previously characterized thienopyridines and diaminoacridine were used as controls. Cells” for “Cells”, “384-well” for “384-well or 96-well”, “lumincescence” for “luminescence”, “assays. […]” for “assays.”

Caco-2 permeability = format: in vitro ADME; conditions: human
Excerpt: (§4) We next evaluated analogs 2b, 2f, 4a, and 4e in a panel of standard in vitro ADME assays to assess drug-like properties and the potential for efficacy in animals.

[6] = Aqueous solubility pH 7.4; format: physicochemical; conditions: aqueous solution, pH 7.4, pH 7.4, aqueous buffer
Excerpt: as §4

[7] = Human liver microsome stability; format: in vitro ADME; conditions: human liver microsomes; read-out: HLM T1/2
Excerpt: The more lipophilic analogs 4a and 4e also appear more prone to oxidative metabolism in the presence of human liver microsomes. This is perhaps unsurprising given the presence of methoxyphenyl (4a) and benzylic methylene (4e) functions, both potential sites of oxidative metabolism.

Jurkat cells = test: MTT cell viability in Jurkat replication assay; format: cell-based; conditions: Table 5; read-out: Jurkat TC50
Protocol: as §3

[8] = Human immunodeficiency virus 1, Table 5, read-out: U1 IC50
[9] = Human immunodeficiency virus 1, NL43, Jurkat, Table 5, read-out: Jurkat replication IC50
[10] = Human immunodeficiency virus 1, Table 6, read-out: U1 IC50
[11] = Human immunodeficiency virus 1, read-out: U1 cell IC50 (nM)

Structure (SMILES) | IC50 [1, 8] [nM] | CC50 at 3 days ([2]; Table 5) [µM] | CC50 at 48 h [3] [µM] | other results
NC(=O)c1cc2c(-c3ccc4ccccc4c3)cncc2s1 | < 100 | < 40 | > 40 | CC50 ([4]; Table 5, read-out: Jurkat TC50): < 40 µM; IC50 (HIV-1 isolate NL4-3; [9]): < 100 nM
NC(=O)c1cc2c(-c3cnc4ccccc4c3)cncc2s1 | < 100 | > 40 | > 40 | CC50 ([4]; Table 5, read-out: Jurkat TC50): > 40 µM; IC50 (HIV-1 isolate NL4-3; [9]): < 100 nM
NC(=O)c1sc2cncc(N3CCN(C=O)CC3)c2c1N | > 500 | > 40 | < 40 | –
CN(C)c1cncc2sc(C(N)=O)c(N)c12 | 100 to 500 | > 40 | < 40 | –
CN(C)c1cccc(-c2cncc3sc(C(N)=O)c(N)c23)c1 | 100 to 500 | > 40 | < 40 | –
NC(=O)c1sc2cncc(N3CCCC(COc4ccccc4F)C3)c2c1N (stereo not shown) | > 500 | < 40 | < 40 | –
CCc1c(C)nc2sc(C(N)=O)c(N)c2c1C | – | – | – | IC50 [1, 10]: > 500 nM; CC50 at 3 days ([2]; Table 6): > 40 µM; EC50 at 48 h [3]: > 40 µM; Tat hybrid cell viability at 50,000 nM [5]: Y (Y = 30-60%)
NC(=O)c1sc2nccc(Nc3ccccc3)c2c1N | – | – | – | IC50 [1, 10]: 100 to 500 nM; CC50 at 3 days ([2]; Table 6): > 40 µM; EC50 at 48 h [3]: > 40 µM; Tat hybrid cell viability at 50,000 nM [5]: Y (Y = 30-60%)
COCc1cc(C)nc2sc(C(N)=O)c(N)c12 | – | – | – | IC50 [1, 10]: > 500 nM; CC50 at 3 days ([2]; Table 6): > 40 µM; EC50 at 48 h [3]: > 40 µM; Tat hybrid cell viability at 50,000 nM [5]: X (X = >60%)
NC(=O)c1sc2nc3c(c(-c4ccco4)c2c1N)CCCC3 | – | – | – | IC50 [1, 10]: > 500 nM; CC50 at 3 days ([2]; Table 6): < 40 µM; EC50 at 48 h [3]: > 40 µM; Tat hybrid cell viability at 50,000 nM [5]: X (X = >60%)
Cc1cc(C)c2c(N)c(C(N)=O)sc2n1 | – | – | – | IC50 [1, 10]: > 500 nM; CC50 at 3 days ([2]; Table 6): > 40 µM; EC50 at 48 h [3]: > 40 µM; Tat hybrid cell viability at 50,000 nM [5]: Z (Z = <30%)
NC(=O)c1sc2cncc(N3CCCCC3)c2c1N [Compound 2b, 3-amino-4-(piperidin-1-yl)thieno[2,3-c]pyridine-2-carboxamide] | – | – | – | IC50 [1, 11]: < 100 nM; IC50 ([1]; Human immunodeficiency virus 1, read-out: IC50 in the U1 assay): 28 nM; Papp (Caco-2 permeability): 50.5 ×10⁻⁶ cm/s; solubility [6]: 34 µM (≈ 9.4 µg/mL); CC50 ([4]; Jurkat infectivity assay, read-out: TC50 (MTT cell viability)): > 40 µM; half-life [7]: 28 min; IC50 (HIV-1 isolate NL4-3; Human immunodeficiency virus 1, NL43, Jurkat, Table 2, NL4-3, read-out: Jurkat HIV-1 replication assay): < 100 nM; IC50 (HIV-1 isolate NL4-3; Human immunodeficiency virus 1, NL43, Jurkat, read-out: IC50 in the HIV replication assay): 76.8 nM; IC50 (HIV-1 isolate NL4-3; Table 1, read-out: Jurkat HIV-1 replication assay): < 100 nM
CC(=O)N1CCN(c2cncc3sc(C(N)=O)c(N)c23)CC1 [Compound 2f, 4-(4-acetylpiperazin-1-yl)-3-aminothieno[2,3-c]pyridine-2-carboxamide] | – | – | – | IC50 [1, 11]: 100 to 500 nM; Papp (Caco-2 permeability): 9.7 ×10⁻⁶ cm/s; solubility [6]: 258 µM (≈ 82.4 µg/mL); half-life [7]: > 60 min; IC50 (HIV-1 isolate NL4-3; Human immunodeficiency virus 1, NL43, Jurkat, Table 1, read-out: Jurkat HIV-1 replication assay): > 500 nM
NC(=O)c1cc2c(-c3ccc4c(c3)CCO4)cncc2s1 [drawing 128] | < 100 | < 40 | > 40 | CC50 (Jurkat cells): < 40 µM; IC50 (HIV-1 isolate NL4-3; [9]): < 100 nM
COc1ccc(-c2cncc3sc(C(N)=O)cc23)cc1 [drawing 129] | < 100 | < 40 | < 40 | CC50 ([4]; Table 5, read-out: Jurkat TC50): < 40 µM; IC50 (HIV-1 isolate NL4-3; [9]): < 100 nM
NC(=O)c1sc2cncc(N3CCCCC3)c2c1N [drawing 134] | < 100 | < 40 | > 40 | CC50 (Jurkat cells): > 40 µM; IC50 (HIV-1 isolate NL4-3; [9]): < 100 nM
COc1ccc(-c2cncc3sc(C(N)=O)c(N)c23)cc1 [drawing 136] | < 100 | > 40 | < 40 | –
NC(=O)c1cc2c(-c3ccc4c(c3)OCO4)cncc2s1 [drawing 137] | < 100 | < 40 | < 40 | –
NC(=O)c1sc2cncc(N3CCC(Oc4ccccc4)CC3)c2c1N [drawing 139] | < 100 | < 40 | > 40 | –
CC(=O)N1CCN(c2cncc3sc(C(N)=O)c(N)c23)CC1 [drawing 144] | 100 to 500 | > 40 | > 40 | CC50 ([4]; Table 5, read-out: Jurkat TC50): > 40 µM; IC50 (HIV-1 isolate NL4-3; [9]): > 500 nM
NC(=O)c1cc2c(-c3cccc(-c4ccccc4)c3)cncc2s1 [drawing 145] | 100 to 500 | < 40 | > 40 | –
NC(=O)c1sc2cncc(-c3ccc4c(c3)CCO4)c2c1N [drawing 151] | < 100 | > 40 | < 40 | –
CN(C)c1ccnc2sc(C(N)=O)c(N)c12 [drawing 152] | > 500 | > 40 | > 40 | –
NC(=O)c1sc2cncc(-c3ccc4c(c3)OCO4)c2c1N [drawing 157] | 100 to 500 | > 40 | < 40 | –
NC(=O)c1sc2cncc(N3CCC(C(N)=O)CC3)c2c1N [drawing 158] | 100 to 500 | > 40 | < 40 | –
NC(=O)c1sc2cncc(N3CCC(F)(F)CC3)c2c1N [drawing 159] | 100 to 500 | > 40 | < 40 | –
NC(=O)c1sc2cncc(N3CCC4(CC3)OCCO4)c2c1N [drawing 161] | 100 to 500 | > 40 | < 40 | –
N#Cc1ccccc1-c1cncc2sc(C(N)=O)cc12 [drawing 164] | > 500 | > 40 | > 40 | –
Cc1noc(C2CCCN(c3cncc4sc(C(N)=O)c(N)c34)C2)n1 (stereo not shown) [drawing 169] | > 500 | > 40 | < 40 | –
